According to the NIST ThermoML archive (doi:10.1016/j.jct.2006.03.010):
± gives the expanded uncertainty stated by the source.

Experiments:
[1] = 101 kPa, Liquid; for speed of sound: Linear variable-path acoustic interferometer
[2] = xn = mol fraction of the nth substance listed; conditions: 101 kPa, Liquid, x2 = 0; for speed of sound: Linear variable-path acoustic interferometer

SMILES | mass density ([1]; 298.15 K) [kg/m3] | viscosity ([1]; 298.15 K) [mPa·s] | speed of sound ([1]; 298.15 K) [m/s] | mass density ([1]; 308.15 K) [kg/m3] | viscosity ([1]; 308.15 K) [mPa·s] | speed of sound ([1]; 308.15 K) [m/s] | speed of sound ([2]; 298.15 K) [m/s] | mass density ([2]; 298.15 K) [kg/m3] | viscosity ([2]; 298.15 K) [mPa·s] | speed of sound ([2]; 308.15 K) [m/s] | mass density ([2]; 308.15 K) [kg/m3] | viscosity ([2]; 308.15 K) [mPa·s]
CCCCO [butan-1-ol] | 806.33 ± 0.5 | 2.585 ± 0.034 | 1235 ± 3 | 798.38 ± 0.54 | 2.012 ± 0.028 | 1210 ± 3 |  |  |  |  |  | 
CCCCO [butan-1-ol] + ClC(Cl)Cl |  |  |  |  |  |  | 1235 ± 3 | 806.33 ± 0.5 | 2.585 ± 0.034 | 1210 ± 3 | 798.38 ± 0.54 | 2.012 ± 0.028
CCO [ethanol] | 784.32 ± 0.39 | 1.084 ± 0.014 | 1144 ± 3 | 775.51 ± 0.43 | 0.902 ± 0.013 | 1111 ± 3 |  |  |  |  |  | 
CCO [ethanol] + ClC(Cl)Cl |  |  |  |  |  |  | 1144 ± 3 | 784.32 ± 0.39 | 1.084 ± 0.014 | 1111 ± 3 | 775.51 ± 0.43 | 0.902 ± 0.013
CO [methanol] | 786.3 ± 0.39 | 0.551 ± 0.009 | 1109 ± 3 | 776.6 ± 0.43 | 0.493 ± 0.009 | 1076 ± 3 |  |  |  |  |  | 
CO [methanol] + ClC(Cl)Cl |  |  |  |  |  |  | 1109 ± 3 | 786.3 ± 0.39 | 0.551 ± 0.009 | 1076 ± 3 | 776.6 ± 0.43 | 0.493 ± 0.009
CCCO [propan-1-ol] | 800.82 ± 0.4 | 1.95 ± 0.024 | 1212 ± 3 | 792.51 ± 0.44 | 1.533 ± 0.02 | 1177 ± 3 |  |  |  |  |  | 
CCCO [propan-1-ol] + ClC(Cl)Cl |  |  |  |  |  |  | 1212 ± 3 | 800.82 ± 0.4 | 1.95 ± 0.024 | 1177 ± 3 | 792.51 ± 0.44 | 1.533 ± 0.02
ClC(Cl)Cl [trichloromethane] | 1478.82 ± 1.2 | 0.556 ± 0.01 | 985 ± 3 | 1459.45 ± 1.2 | 0.513 ± 0.009 | 950 ± 2 |  |  |  |  |  | 
